Paper PMC12501029, “Discovery of a CNS active GSK3 degrader using orthogonally reactive linker screening” (Nature Communications, 2025)

Tests used:
[1] = test system: GSK3β Ser9 and GSK3β Tyr216 phosphorylation; assay: GSK3β phosphorylation (Ser9, Tyr216) immunoblot in HEK293 cells; type: cell-based, human; details: for impact on GSK3β Ser9 or GSK3β Tyr216 phosphorylation prior to degradation: 10 nM 24, 27, 10 nM and 1 µM 29, 30 min
Experimental: HEK293, HAP1, HAP1 CRBN KO and SH-SY5Y cells were plated in either 6 cm plates or 6-well plates at varying densities (0.5–0.7 × 10^6 cells per plate or wells), and MEF cells were plated in 10 cm plates (1–1.2 × 10^6 cells per plate) depending on experimental set up in respective culturing condition as described above. Stock solutions of compounds were prepared as 10 mM in DMSO (Sigma–Aldrich). Working dilutions were made up fresh in DMSO and culturing media or differentiation media was refreshed prior to any compound treatments. For mode of action studies, cells were pre-treated with inhibitors for 2 h: 1 µM MG132 (Merck, 474790-5 mg), 1 µM MLN4924 (Merck, 5054770001) or 1 µM GSK3 inhibitor (compound 29), before treating with PROTACs for 2, 4 or 24 h as indicated in figure legends. Cells were washed twice with ice-cold PBS (Gibco), harvested in PBS and pelleted, cells were resuspended in RIPA buffer supplemented with complete EDTA-free protease inhibitor cocktail (Roche,11873580001, 1/10 mL) and phosSTOP (Roche, 04906845001, 1 tablet/10 mL) for 20 min lysis on ice then cleared via centrifugation at 16,000 × g, 4 °C for 20 min. SH-SY5Y cells were lysed in 500 µL ice-cold lysis buffer (25 mM Tris-HCl (pH 7.4), 50 mM NaF, 100 mM NaCl, 1 mM EDTA, 4 mM EGTA, 1% (v/v) Triton-X-100, 0.09% (w/v) sucrose, 10 mM sodium pyrophosphate, 10 mM sodium vanodate, 0.1% (v/v) β-mercaptoethanol, supplemented with complete mini protease inhibitor tablet (Sigma; 1 tablet/ 10 mL buffer)). Lysates were flash frozen, thawed and centrifugated at 16,000 × g, 4 °C for 20 min. Following clearance of lysates, protein concentrations were determined by the BCA assay (Fisher Scientific, 23225) or Bradford assay (Bio-rad). Five to thirty micrograms of protein from lysates were prepared in 4×LDS buffer (Thermo Fisher) and 50 mM dithiothreitol (DTT) denaturated at 95 °C for 5 min. Proteins were separated on NuPAGE 4–12% Bis-Tris gels (Invitrogen) or 4–12% Novex Tris-glycine gels (Invitrogen) in MOPS buffer (Invitrogen) and transferred onto nitrocellulose membranes using an iBlot3 system (Thermo Fisher Scientific) or nitrocellulose membranes (Cytiva) in cold tris-glycine-methanol buffer (25 mM Tris (pH 7.5), 192 mM glycine, 20% (v/v) methanol). Membranes were blocked with either 5% fat-free milk (Marvel) or 1% (w/v) BSA (Sigma) in TBS-T (20 mM Tris (pH 7.5), 150 mM NaCl, 0.1% (v/v) Tween-20 (Sigma)) at room temperature for 30 min, or in the case of SH-SY5Y assays, 1 h, before incubating with primary antibodies overnight at 4 °C on a rocker. […]

[2] = test system: HEK293 cells phosphoproteome; assay: Phosphoproteomics in HEK293 cells; type: cell-based, human; set-up: scale not given here; details: phosphosite abundance difference
Experimental: IMAC beads were prepared from Ni-NTA (nitrilotriacetic acid) superflow agarose beads. The nickel was stripped with 100 mM EDTA and incubated in an aqueous solution of 10 mM iron (III) chloride (FeCl3). Dried peptide fractions were reconstituted to a concentration of 0.5 μg/μL in 80% ACN/0.1% TFA. Peptide mixtures were enriched for phosphorylated peptides with 5 μL IMAC beads for 30 min with end-to-end rotation.
Enriched IMAC beads were loaded on Empore C18 silica-packed stage tips. Stage tips were equilibrated with acetonitrile followed by 50% ACN/0.1% FA then 1% FA. The beads with enriched peptides were loaded onto C18 stage tips and washed with 80% ACN/0.1% TFA. Phosphorylated peptides were eluted from IMAC beads with 500 mM dibasic sodium phosphate, pH 7.0. These peptides were washed with 1% FA before elution using 50% acetonitrile in 0.1% FA. The peptides were then dried by SpeedVac and stored at −20 °C until mass spectrometry analysis. The dried phosphopeptides were reconstituted in 0.1% formic acid and analyzed on an Orbitrap Ascend mass spectrometer coupled to a Thermo Fisher Scientific Vanquish Neo UHPLC. […] The total run time was set to 155 min. A survey full scan MS (from m/z 350–1500) was acquired in the Orbitrap at a resolution of 120,000 at 200 m/z. The most intense ions with charge state ≥2 were isolated and fragmented using higher collision dissociation (HCD) fragmentation, with 30% normalised collision energy, and detected at a mass resolution of 50,000 at 200 m/z. The isolation window was set at 1.6. The phosphoproteomics raw data were searched using SEQUEST HT search engines with Proteome Discoverer 3.0 (Thermo Fisher Scientific). The following parameters were used for searches: Precursor mass tolerance 10 ppm, fragment mass tolerance 0.02, enzyme: trypsin, […], fixed modification: carbamidomethylation of cysteine residues and TMT of lysine and N-terminal, dynamic modification: oxidation of methionine and phosphorylation of serine, threonine and tyrosine. The data were filtered for 1% PSM and peptide level. A two-tailed t-test with 250 randomisations was performed in Perseus software (v1.6.15.0) to assess statistical significance between groups. The resulting data were visualised as a volcano plot using GraphPad Prism (v10.1.2).

[3] = target: T1, GSK3β-HiBiT (GSK3β-HiBiT KI HEK293 cells) (Homo sapiens, UniProt P49841); assay: HiBiT lytic degradation assay / high-throughput screen, 24 h; type: cell-based; details: 24 h treatment
T1 construct: we generated endogenously tagged GSK3β-HiBiT knock-in (KI) HEK293 cells; endogenous in cells; host or cells: GSK3β-HiBiT knock-in HEK293 cells (CRISPR/Cas9, single-cell clone)
T1 sequence (P49841 whole entry): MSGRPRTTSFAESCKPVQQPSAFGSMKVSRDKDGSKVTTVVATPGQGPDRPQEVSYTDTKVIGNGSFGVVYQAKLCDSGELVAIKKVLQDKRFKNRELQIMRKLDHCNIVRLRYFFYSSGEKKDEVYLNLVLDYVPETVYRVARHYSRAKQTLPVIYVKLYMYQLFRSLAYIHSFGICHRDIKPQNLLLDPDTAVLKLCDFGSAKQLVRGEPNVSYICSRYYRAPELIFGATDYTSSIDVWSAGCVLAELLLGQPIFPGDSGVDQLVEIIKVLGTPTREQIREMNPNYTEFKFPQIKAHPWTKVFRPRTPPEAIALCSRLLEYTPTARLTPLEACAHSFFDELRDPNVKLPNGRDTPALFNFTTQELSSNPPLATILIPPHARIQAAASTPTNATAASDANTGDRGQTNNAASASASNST
Experimental: Crude compounds were assumed to be 10 mM concentration in DMSO and after generating libraries directly used in biological tests in degradation screens. Stock solutions were serially diluted into white bottom opaque 384-well plates (Perkin Elmer) using Echo500 (Labcyte) and DMSO was backfilled to maintain same DMSO content in each well for all concentrations. […] HiBiT lytic assay buffer (Promega) prepared according to the manufacturer’s instructions and added onto each well using Multidrop^TM Combi reagent dispenser. Luminescence signal was measured on PheraStar plate reader (BMG) and obtained data normalised to DMSO conditions using Excel and further analysed using GraphPad Prism (v10.1.2) and degradation curves were generated using 4-parameter non-linear regression fit to calculate DC50 and Dmax values. Data points associated with concentrations displaying a hook effect were excluded prior to DC50 and Dmax calculation.

[4] = Intrinsic clearance (Cli), mouse liver microsomes; type: in vitro ADME; details: 0.5 µM, scaling factor 48 mg microsomal protein per g liver
Experimental: (§1) Test compound (0.5 µM) was incubated with female CD1 mouse, male rat Han Wistar and pooled human liver microsomes (Xenotech^TM; 0.5 mg/mL 50 mM potassium phosphate buffer, pH7.4) and the reaction started with addition of excess NADPH (8 mg/mL 50 mM potassium phosphate buffer, pH7.4). Immediately, at time zero, then at 3, 6, 9, 15 and 30 min an aliquot (50 µL) of the incubation mixture was removed and mixed with acetonitrile (100 uL) to stop the reaction. An internal standard was added to all samples, the samples centrifuged to sediment precipitated protein and the plates then sealed prior to UPLC-MSMS analysis (Xevo TQ-S Micro, Waters^TM). XLfit (IDBS, UK) was used to calculate the exponential decay and consequently the rate constant (k) from the ratio of peak area of test compound to internal standard at each timepoint. The rate of intrinsic clearance (CLi) of each test compound was then calculated using the following calculation:1 CLi(mL/min/gliver)=kxVxMicrosomalproteinyield Where V (mL/mg protein) is the incubation volume/mg protein added and microsomal protein yield is taken as 48 mg, 46 mg and 40 mg protein/g liver for mouse, rat and human, respectively. Verapamil (0.5 µM) was used as a positive control to confirm acceptable assay performance.

[5] = Intrinsic clearance (Cli), rat liver microsomes; type: in vitro ADME; details: 0.5 µM, scaling factor 46 mg microsomal protein per g liver
Experimental: as §1

[6] = Intrinsic clearance (Cli), human liver microsomes; type: in vitro ADME; details: 0.5 µM, scaling factor 40 mg microsomal protein per g liver
Experimental: as §1

CN1C(=O)CCN(c2nn(C)c3cc(CN4CCN(Cc5ccc(-c6cn(-c7ccc(-c8cn9nccc(C(=O)Nc%10cnccc%10N%10CCOCC%10)c9n8)cc7)nn6)nc5)CC4)ccc23)C1=O [compound 27]
impact on GSK3β Ser9 or GSK3β Tyr216 phosphorylation prior to degradation [1]: no impact observed | Difference, E2F8 A0AVK6 1xPhospho [S68(99.5)] ([2]; 27 vs DMSO, MOESM7): -0.2137 | Difference, E2F8 A0AVK6 1xPhospho [S417(100)] ([2]; 27 vs DMSO, MOESM7): 0.1148 | Difference, GATD3B A0A0B4J2D5 1xPhospho [S98(100)] ([2]; 27 vs DMSO, MOESM7): 0.02358 | Difference, SIK1B A0A0B4J2F2 1xPhospho [S575(100)] ([2]; 27 vs DMSO, MOESM7): 0.09328 | Difference, UBA6 A0AVT1 1xPhospho [S36(100)] ([2]; 27 vs DMSO, MOESM7): 0.2252 | Difference, A0JNW5 1xPhospho [S414(100)] UHRF1BP1L ([2]; 27 vs DMSO, MOESM8): 0.1475 | Difference, A0JNW5 1xPhospho [S953(99.7)] UHRF1BP1L ([2]; 27 vs DMSO, MOESM8): -0.0085 | Difference, A0MZ66 1xPhospho [S506(100)] SHTN1 ([2]; 27 vs DMSO, MOESM8): 0.1099 | Difference, A0MZ66 1xPhospho [S512(100)] SHTN1 ([2]; 27 vs DMSO, MOESM8): 0.06022 | Difference, A0MZ66 1xPhospho [T537(100)] SHTN1 ([2]; 27 vs DMSO, MOESM8): -0.2879 | Difference, Q5PRF9 1xPhospho [S592(100)] SAMD4B ([2]; vs DMSO, MOESM9): 0.05893 | Difference, Q8NEM7 1xPhospho [S437(100)] SUPT20H ([2]; vs DMSO, MOESM9): 0.2274 | Difference, Q96KQ7 1xPhospho [S140(100)] EHMT2 ([2]; vs DMSO, MOESM9): 0.333 | Difference, Q15398 1xPhospho [S725(100)] DLGAP5 ([2]; vs DMSO, MOESM9): 0.1236 | Difference, Q15911 1xPhospho [S426(100)] ZFHX3 ([2]; vs DMSO, MOESM9): 0.1806

O=C1CCC(NC(=O)c2ccc(CN3CCN(CCCc4cn(-c5ccc(-c6cn7nccc(C(=O)Nc8cnccc8N8CCOCC8)c7n6)cc5)nn4)CC3)cn2)C(=O)N1 (centres unmarked) [compound 23]
Dmax ([3]; HEK293, crude mixture, stock assumed 10 mM): 81% | Dmax ([3]; HEK293, pure (resynthesised, HPLC purified) compound): 73%

O=C(Nc1cnccc1N1CCOCC1)c1ccnn2cc(-c3ccc(Br)cc3)nc12 [compound 29]
impact on GSK3β Ser9 or GSK3β Tyr216 phosphorylation prior to degradation [1]: no impact observed | phosphorylation of Tyr216 after 2 h ([1]; 1 µM, 2 h): some reduction in phosphorylation of Tyr216

O=C1CCC(NC(=O)c2ccc(CN3CCN(CCCCCc4cn(-c5ccc(-c6cn7nccc(C(=O)Nc8cnccc8N8CCOCC8)c7n6)cc5)nn4)CC3)cc2F)C(=O)N1 (centres unmarked) [compound 21]
Scaled Microsomal Stability MuClint [4]: 15 ml/min/g liver | Scaled Microsomal Stability RatClint [5]: 2.6 ml/min/g liver | Scaled Microsomal Stability HuClint [6]: 27 ml/min/g liver
